Results reported in article PMC3203342 (Nature, 2011).

Legend:
Or85a/Orco in ab2B OSN = biological target: T1, Or85a/Orco in ab2B OSN (Drosophila melanogaster, UniProt Q9VHS4); experiment: single sensillum recording, dose-response; assay type: cell-based; details: native ab2B neuron; vapour; agonist
T1 sequence (Q9VHS4 1-397): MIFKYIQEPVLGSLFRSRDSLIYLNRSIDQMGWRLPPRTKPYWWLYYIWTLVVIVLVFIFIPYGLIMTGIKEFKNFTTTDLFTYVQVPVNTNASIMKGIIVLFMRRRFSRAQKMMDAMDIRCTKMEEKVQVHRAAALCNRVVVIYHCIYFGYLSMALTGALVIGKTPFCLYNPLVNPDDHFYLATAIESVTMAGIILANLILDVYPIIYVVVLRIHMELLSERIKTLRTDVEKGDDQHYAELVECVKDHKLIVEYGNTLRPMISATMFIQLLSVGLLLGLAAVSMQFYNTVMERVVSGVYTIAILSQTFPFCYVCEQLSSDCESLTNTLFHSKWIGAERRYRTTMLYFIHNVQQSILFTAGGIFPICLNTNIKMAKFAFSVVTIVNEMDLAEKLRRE
T1 sequence (Q9VNB5 1-486 partner): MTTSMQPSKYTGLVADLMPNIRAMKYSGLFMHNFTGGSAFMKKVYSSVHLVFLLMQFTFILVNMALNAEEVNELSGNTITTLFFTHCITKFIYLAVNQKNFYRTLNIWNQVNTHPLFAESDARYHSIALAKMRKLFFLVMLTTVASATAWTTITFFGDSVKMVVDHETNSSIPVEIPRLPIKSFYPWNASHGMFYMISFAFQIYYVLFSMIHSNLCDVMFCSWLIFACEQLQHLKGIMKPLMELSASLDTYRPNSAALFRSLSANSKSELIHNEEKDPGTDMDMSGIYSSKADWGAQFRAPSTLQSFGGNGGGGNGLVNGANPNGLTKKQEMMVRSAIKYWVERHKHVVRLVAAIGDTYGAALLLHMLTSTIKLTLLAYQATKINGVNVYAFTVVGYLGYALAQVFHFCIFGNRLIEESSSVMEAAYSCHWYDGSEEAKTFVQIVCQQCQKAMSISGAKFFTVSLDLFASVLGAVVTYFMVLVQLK

Or59b/Orco in ab2A OSN = biological target: T2, Or59b/Orco in ab2A OSN (Drosophila melanogaster, UniProt Q9W1P8); experiment: single sensillum recording, dose-response; assay type: cell-based; details: native ab2A neuron; vapour; inhibitor of spontaneous activity
T2 sequence (Q9W1P8 1-398): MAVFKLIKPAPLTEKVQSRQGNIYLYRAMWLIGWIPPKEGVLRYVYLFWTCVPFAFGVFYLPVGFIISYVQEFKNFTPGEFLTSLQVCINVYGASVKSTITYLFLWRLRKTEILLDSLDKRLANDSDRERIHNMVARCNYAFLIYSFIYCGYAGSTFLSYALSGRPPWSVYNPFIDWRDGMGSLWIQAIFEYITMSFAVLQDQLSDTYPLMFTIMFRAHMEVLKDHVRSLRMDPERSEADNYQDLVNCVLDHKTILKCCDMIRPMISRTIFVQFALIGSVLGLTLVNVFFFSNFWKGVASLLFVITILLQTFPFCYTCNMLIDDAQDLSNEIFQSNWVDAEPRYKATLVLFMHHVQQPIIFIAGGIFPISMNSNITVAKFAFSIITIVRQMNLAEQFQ
T2 sequence (Q9VNB5 1-486 partner): T1 sequence (Q9VNB5 1-486 partner)

SMILES	Δ spikes/s (Or85a/Orco in ab2B OSN)	Δ spikes/s (Or59b/Orco in ab2A OSN)
C=CC(O)CCCCC (stereo not drawn) [1-octen-3-ol]	activating the ab2B neuron expressing Or85a/Orco (Fig. 1e)	
CCCCCCCCO [1-octanol]		DEET interfered with inhibition of Or59b/Orco by 1-octen-3-ol, 1-octanol, and linalool
C=C[C@](C)(O)CCC=C(C)C [linalool]		DEET interfered with inhibition of Or59b/Orco by 1-octen-3-ol, 1-octanol, and linalool
